Data on one compound can be found in publication PMC7139549, “TLD1433 Photosensitizer Inhibits Conjunctival Melanoma Cells in Zebrafish Ectopic and Orthotopic Tumour Models” (Cancers, 2020).

Like-named read-outs stand apart in the source and are kept apart here.

For experiment [1], the system named is A431 epidermoid carcinoma cell line. Nature of the experiment: SRB cell viability assay, A431. It is filed as cell-based, Human. As for the experimental part: TLD1433 is known to generate reactive oxygen species (ROS) with high quantum efficacy in many cancer cell lines. However, there is no report of the in vitro toxicity of this compound in eye melanoma (UM) cell lines. We determined the cell viability of three conjunctival melanoma cell lines (CRMM1, CRMM2 and CM2005.1), and three uveal melanoma cell lines (OMM1, OMM2.5, MEL270) in the presence of TLD1433, both in the dark or under green light irradiation (21 mW/cm^2, 19 J/cm^2, 520 nm, 15 min), and compared this viability to epidermoid carcinoma A431 and cutaneous melanoma A375 cell lines under the same conditions. […] The phototoxicity index (PI), defined as the ratio of the dark EC50 to the light EC50, was also calculated and represents the amplification of TLD1433 activity with a light trigger. […]
(§1) Figure 2 Cell viability after TLD1433 treatment of eight tumour cell lines (CRMM1, CRMM2, CM2005.1, OMM1, OMM2.5, MEL270, A431, A375). […] The absorbance of Sulforhodamine B in solution was measured at 520 nm. […]
(§2) At day 0, cells were detached using 1mL of trypsin, resuspended in 4 mL of media and transferred to a 15 mL corning falcon tube. Cells were counted using trypan blue and BioRad® TC20™ automated cell counter (Figure 11). […] Next day, the dye was dissolved using Tri-base (0.25%) and absorbance of SRB at 510 nm was recorded from each well using a Tecan plate reader. […]

The subject of experiment [2] is OMM2.5 uveal melanoma cell line. The experiment is described as follows: SRB cell viability assay, OMM2.5. The experiment is classed as cell-based, Human. As for the experimental part: TLD1433 is known to generate reactive oxygen species (ROS) with high quantum efficacy in many cancer cell lines. However, there is no report of the in vitro toxicity of this compound in eye melanoma (UM) cell lines. We determined the cell viability of three conjunctival melanoma cell lines (CRMM1, CRMM2 and CM2005.1), and three uveal melanoma cell lines (OMM1, OMM2.5, MEL270) in the presence of TLD1433, both in the dark or under green light irradiation (21 mW/cm^2, 19 J/cm^2, 520 nm, 15 min), and compared this viability to epidermoid carcinoma A431 and cutaneous melanoma A375 cell lines under the same conditions. The protocol used was based on previous work from the Bonnet group, and differed slightly from recommendations from McFarland et al.. […] The effective concentration (EC50) values, i.e., the concentration required to reduce cell viability by 50% compared to untreated wells, were assessed by fitting the dose-response curves with a Hill equation. The phototoxicity index (PI), defined as the ratio of the dark EC50 to the light EC50, was also calculated and represents the amplification of TLD1433 activity with a light trigger. […]
as §1
as §2, with “11). Dilutions of 6000 (CRMM1), 6000 (CRMM2), 8000 (CM2005.1), 6000 (OMM1), 6000 (OMM2.5), 6000 (MEL270) 8000 (A431), and 4000 (A375) cells/well were calculated from each cell suspension at a final volume of 6 mL using the following formula: Vc=(Vt×10C)/Lc where Vt = total volume of solution, C = number of cells per well/per 100 μL and Lc = live cells count (cells/mL).” for “11).”

Take `Cc1ccnc(-c2cc(C)ccn2)c1.Cc1ccnc(-c2cc(C)ccn2)c1.[Cl-].[Cl-].[Ru+2].c1csc(-c2ccc(-c3ccc(-c4nc5c6cccnc6c6ncccc6c5[nH]4)s3)s2)c1` [TLD1433]: the EC50 in experiment [1] (A431, dark, 24 h treatment, SRB, read-out: EC50, dark) is > 5000 nM; in experiment [1] (A431, green light 520 nm, 15 min, 21 mW/cm^2, 19 J.cm^−2, DLI 24 h, read-out: EC50,light), 49 nM; in experiment [2] (OMM2.5, dark, 24 h treatment, SRB, read-out: EC50, dark), 640 nM; in experiment [2] (OMM2.5, green light 520 nm, 15 min, 21 mW/cm^2, 19 J.cm^−2, DLI 24 h, read-out: EC50,light), 13 nM. For the same compound, the “PI (photo index)” value in experiment [2] (OMM2.5, ratio of dark and light EC50, 19 J.cm^−2 green light) came to 49.

A word on the EC50: it is the concentration giving half of the maximal effect.
